In PMC8440459 (Neurotoxicology, 2021):
Entries after “also recorded” stand apart in the source; their conditions may differ. Values belong to the compound of their own block, whether it stands above or below them.

Key:
equine liver GST [1] = biological target: T1, equine liver GST (Equus caballus, UniProt A0A9L0RPC4); test: Nitro blue tetrazolium staining of equine liver GST; conditions: 1mM protectant
[2] = biological target: bovine serum albumin (BSA) (Bos taurus, UniProt P02769); test: Nitro blue tetrazolium staining of BSA modified by DOPAL; conditions: 0.5mg/mL BSA, 4 hours at 37°C, L-cysteine effect at 1mM
equine liver GST [3] = biological target: T1, equine liver GST; test: Protection of GST activity from DOPAL, DA or DOPAC; assay type: biochemical; conditions: 1mM protectant, 100μM DA
equine liver GST [4] = biological target: T1, equine liver GST; test: Time dependency of equine liver GST inhibition; assay type: biochemical; conditions: for GST activity after 24-hour incubation: 100μM inhibitor, compared with 4 hours; for Time dependency of inhibition of GST activity: aliquots after 1, 2 and 4 hours of incubation
equine liver GST [5] = biological target: T1, equine liver GST; test: Reversibility of equine liver GST inhibition; assay type: biochemical; conditions: for Reversibility of inhibition of GST activity: 100μM inhibitor, with or without size exclusion column; for GST activity after application to Bio-Spin 6 Tris Columns / Inhibition of GST after incubation with known reversible inhibitor: 500μM, data not shown; for GST activity after application to Bio-Spin 6 Tris Columns: after column; for Inhibition of GST after incubation with known reversible inhibitor: before column
[6] = biological target: GST isolated from N27 dopaminergic cells (Rattus norvegicus, UniProt P04906); test: CDNB assay of GST isolated from N27 cells; assay type: biochemical
dopaminergic cells = conditions: ref Schamp and Doorn, 2017; cited from earlier work
equine liver GST [7] = biological target: T1, equine liver GST; assay type: biochemical; conditions: 4 hours at 37°C

Sequence of GST isolated from N27 dopaminergic cells (P04906 whole entry): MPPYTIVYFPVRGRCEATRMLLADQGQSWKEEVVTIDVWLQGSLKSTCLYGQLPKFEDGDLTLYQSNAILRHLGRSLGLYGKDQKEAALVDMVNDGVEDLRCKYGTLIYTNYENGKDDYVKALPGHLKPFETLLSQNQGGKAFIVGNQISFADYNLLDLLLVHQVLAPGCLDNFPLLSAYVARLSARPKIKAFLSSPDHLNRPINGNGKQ
Sequence of bovine serum albumin (BSA) (P02769 25-607): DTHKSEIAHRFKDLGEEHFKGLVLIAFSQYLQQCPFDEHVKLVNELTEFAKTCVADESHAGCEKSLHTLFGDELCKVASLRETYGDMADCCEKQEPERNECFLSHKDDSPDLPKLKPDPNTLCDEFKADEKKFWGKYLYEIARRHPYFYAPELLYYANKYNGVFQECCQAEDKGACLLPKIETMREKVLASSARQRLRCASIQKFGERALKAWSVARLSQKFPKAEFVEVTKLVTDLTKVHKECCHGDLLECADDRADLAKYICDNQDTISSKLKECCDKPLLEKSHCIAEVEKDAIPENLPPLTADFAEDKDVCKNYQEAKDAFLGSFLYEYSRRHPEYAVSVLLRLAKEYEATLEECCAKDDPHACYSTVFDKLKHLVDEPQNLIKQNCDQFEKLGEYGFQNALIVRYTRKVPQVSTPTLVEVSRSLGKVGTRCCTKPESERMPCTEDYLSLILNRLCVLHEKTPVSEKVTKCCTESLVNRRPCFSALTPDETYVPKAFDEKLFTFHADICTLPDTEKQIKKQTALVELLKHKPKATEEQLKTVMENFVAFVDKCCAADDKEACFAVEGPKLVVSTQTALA

Compound: NCCC(=O)N[C@@H](Cc1cnc[nH]1)C(=O)O [Carnosine, carnosine]
Protection against modification of equine liver GST by 100 μM DOPAL (NBT stain) (equine liver GST [1]): moderately protective | Reduction of NBT staining of BSA modified by 200μM DOPAL [2]: did not significantly reduce protein modification | Protection of GST activity against inhibition by DA (equine liver GST [3]): significant protection; also recorded: partial activity retention

Compound: NCCc1ccc(O)c(O)c1 [DA, dopamine]
GST activity after 24-hour incubation (equine liver GST [4]): almost completely nulls enzyme activity | Time dependency of inhibition of GST activity (equine liver GST [4]): time dependent | Reversibility of inhibition of GST activity (equine liver GST [5]): irreversible | IC50 [6]: 82.3 µM

Compound: O=C(O)Cc1ccc(O)c(O)c1 [DOPAC, 3,4-dihydroxyphenylacetic acid]
Time dependency of inhibition of GST activity (equine liver GST [4]): time dependent | Reversibility of inhibition of GST activity (equine liver GST [5]): irreversible | IC50 [6]: 260 µM

Now from value to compound, other results behind:

GST activity after 24-hour incubation (equine liver GST [4]): almost completely nulls enzyme activity | Time dependency of inhibition of GST activity (equine liver GST [4]): time dependent | Reversibility of inhibition of GST activity (equine liver GST [5]): irreversible | IC50 [6]: 31.5 µM | Concentration giving significant inhibition of commercially available GST (equine liver GST [7]): 5 µM
Compound: O=CCc1ccc(O)c(O)c1 [DOPAL, 3,4-dihydroxyphenylacetaldehyde]
Concentration toxic to dopaminergic cells (dopaminergic cells): 7 µM

Reduction of NBT staining of BSA modified by 200μM DOPAL [2]: significantly reduced NBT staining
Compound: N[C@@H](CS)C(=O)O [L-cysteine]

Inhibition of GST after incubation with known reversible inhibitor (equine liver GST [5]): significant inhibition
Compound: CCCCCCSC[C@H](NC(=O)CC[C@H](N)C(=O)O)C(=O)NCC(=O)O [S-hexylglutathione]
GST activity after application to Bio-Spin 6 Tris Columns (equine liver GST [5]): regained the full value of its original activity

Inhibition of GST after incubation with known reversible inhibitor (equine liver GST [5]): significant inhibition
Compound: O=C(O)/C=C/c1ccc(O)c(O)c1 [caffeic acid]
GST activity after application to Bio-Spin 6 Tris Columns (equine liver GST [5]): regained the full value of its original activity
